This passage reports remaining activity, Dmax and DC50 results from patent US20260216164A1, “INDOLE COMPOUND DECOMPOSING IKZF2, AND USE THEREOF” (KOREA RESEARCH INSTITUTE OF CHEMICAL TECHNOLOGY, priority 2023, published 2026).

Assay [1] addresses Helios (IKZF2) (Homo sapiens, UniProt Q96SW2+Q9UKS7). In words: Screening of Helios protein degraders using Nano-Glo HiBiT cell line (HiBiT-IKZF2). The following applies: 6 hours, HiBiT-Helios knock-in Jurkat cells; for remaining activity at 1 µM: compound 1 μM, read-out: HiBiT-IKZF2 Residual amount of Helios (%) 1 μM; for remaining activity at 10 µM: compound 10 μM, read-out: HiBiT-IKZF2 Residual amount of Helios (%) 10 μM. It counts as cell-based. Background: The HiBiT peptide binds its large partner to form an active luciferase.

In assay [2] the target is IKZF2 (Helios) (Homo sapiens, UniProt Q96SW2+Q9UKS7). In words: Screening of DC50 (nM) and Dmax (%) using WB-IKZF2 cell line (Western blot). The settings on record: 6 hours; for DC50: class symbols, read-out: WB-IKZF2 DC 50. The class given is cell-based. Also on record: endogenous in cells. On the procedure:
Experimental Example 2. Screening of DC50 (nM) and Dmax (%) Using WB-IKZF2 Cell Line
Candidate degraders were serially diluted and treated in cells cultured in complete medium, followed by incubation for 6 hours at 37° C. in a CO2 incubator. After 6 hours, the cells were harvested and lysed in RIPA buffer (150 mM NaCl, 1% Triton X-100, 1% sodium deoxycholate, 0.1% SDS, 50 mM Tris-HCl pH 7.5, and 2 mM EDTA) containing a protease inhibitor cocktail (Roche). The mixture was vortexed every 10 minutes and incubated on ice for 30 minutes, followed by centrifugation at 13,000 rpm for 10 minutes at 4° C. to isolate proteins. The isolated proteins were quantified using the Bradford assay (Bio-Rad, 5000006). Proteins were separated on 8% SDS-polyacrylamide gel, transferred onto nitrocellulose membranes (Amersham, 10600002), and incubated with primary antibodies at 4° C. for 18 hours. The following primary antibodies were used: anti-Helios rabbit monoclonal antibody (Cell Signaling, 42427, 1:3000) and anti-β-actin mouse monoclonal antibody (Santa Cruz, sc-47778, 1:5000). β-actin was used as a loading control. The next day, the membranes were washed with 1×TBST for 30 minutes and incubated with HRP-conjugated secondary antibodies corresponding to the primary antibodies at room temperature for 1 hour. The following secondary antibodies were used: anti-mouse IgG HRP-linked antibody (Sigma, A9044, 1:5000) and anti-rabbit IgG HRP-linked antibody (Cell Signaling, 7074, 1:5000). After washing with 1×TBST for 30 minutes, protein expression was visualized using the Pierce ECL Western blotting substrate (Thermo Fisher, 32106), and images were captured using a chemiluminescence image analysis system (GE Healthcare, AI680). The obtained images were quantified using the ImageJ software.
(In general: A western blot detects proteins with antibodies after separation by electrophoresis.)

Structures are written as SMILES.

Sequence of IKZF2 (Helios) (Q9UKS7 whole entry): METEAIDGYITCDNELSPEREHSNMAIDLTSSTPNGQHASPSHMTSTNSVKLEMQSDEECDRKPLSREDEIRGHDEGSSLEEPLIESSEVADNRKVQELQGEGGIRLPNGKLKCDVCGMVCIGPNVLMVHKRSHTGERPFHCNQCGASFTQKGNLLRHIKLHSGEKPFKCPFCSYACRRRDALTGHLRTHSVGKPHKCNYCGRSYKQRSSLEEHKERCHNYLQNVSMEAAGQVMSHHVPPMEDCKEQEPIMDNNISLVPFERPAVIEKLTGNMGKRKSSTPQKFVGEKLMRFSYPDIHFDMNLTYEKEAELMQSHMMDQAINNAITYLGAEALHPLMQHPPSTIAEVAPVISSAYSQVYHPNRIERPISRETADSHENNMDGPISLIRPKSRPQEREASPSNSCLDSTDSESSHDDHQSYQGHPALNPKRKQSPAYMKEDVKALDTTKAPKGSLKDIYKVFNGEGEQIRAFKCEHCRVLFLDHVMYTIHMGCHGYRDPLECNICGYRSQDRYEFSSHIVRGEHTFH
Sequence of IKZF2 (Helios) (Q96SW2 whole entry): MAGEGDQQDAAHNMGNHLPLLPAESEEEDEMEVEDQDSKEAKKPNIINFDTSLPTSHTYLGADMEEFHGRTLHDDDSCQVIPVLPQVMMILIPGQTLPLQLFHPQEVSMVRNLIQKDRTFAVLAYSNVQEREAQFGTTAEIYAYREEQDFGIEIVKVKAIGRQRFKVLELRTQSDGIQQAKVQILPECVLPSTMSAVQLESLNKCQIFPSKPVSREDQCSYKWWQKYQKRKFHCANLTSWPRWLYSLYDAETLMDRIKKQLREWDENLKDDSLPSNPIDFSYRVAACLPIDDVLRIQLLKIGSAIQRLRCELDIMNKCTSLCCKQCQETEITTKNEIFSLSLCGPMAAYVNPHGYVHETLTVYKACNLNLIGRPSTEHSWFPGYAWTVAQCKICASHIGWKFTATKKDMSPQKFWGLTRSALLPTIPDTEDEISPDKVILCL
Sequence of IKZF2 (Helios) (Q16531 whole entry partner): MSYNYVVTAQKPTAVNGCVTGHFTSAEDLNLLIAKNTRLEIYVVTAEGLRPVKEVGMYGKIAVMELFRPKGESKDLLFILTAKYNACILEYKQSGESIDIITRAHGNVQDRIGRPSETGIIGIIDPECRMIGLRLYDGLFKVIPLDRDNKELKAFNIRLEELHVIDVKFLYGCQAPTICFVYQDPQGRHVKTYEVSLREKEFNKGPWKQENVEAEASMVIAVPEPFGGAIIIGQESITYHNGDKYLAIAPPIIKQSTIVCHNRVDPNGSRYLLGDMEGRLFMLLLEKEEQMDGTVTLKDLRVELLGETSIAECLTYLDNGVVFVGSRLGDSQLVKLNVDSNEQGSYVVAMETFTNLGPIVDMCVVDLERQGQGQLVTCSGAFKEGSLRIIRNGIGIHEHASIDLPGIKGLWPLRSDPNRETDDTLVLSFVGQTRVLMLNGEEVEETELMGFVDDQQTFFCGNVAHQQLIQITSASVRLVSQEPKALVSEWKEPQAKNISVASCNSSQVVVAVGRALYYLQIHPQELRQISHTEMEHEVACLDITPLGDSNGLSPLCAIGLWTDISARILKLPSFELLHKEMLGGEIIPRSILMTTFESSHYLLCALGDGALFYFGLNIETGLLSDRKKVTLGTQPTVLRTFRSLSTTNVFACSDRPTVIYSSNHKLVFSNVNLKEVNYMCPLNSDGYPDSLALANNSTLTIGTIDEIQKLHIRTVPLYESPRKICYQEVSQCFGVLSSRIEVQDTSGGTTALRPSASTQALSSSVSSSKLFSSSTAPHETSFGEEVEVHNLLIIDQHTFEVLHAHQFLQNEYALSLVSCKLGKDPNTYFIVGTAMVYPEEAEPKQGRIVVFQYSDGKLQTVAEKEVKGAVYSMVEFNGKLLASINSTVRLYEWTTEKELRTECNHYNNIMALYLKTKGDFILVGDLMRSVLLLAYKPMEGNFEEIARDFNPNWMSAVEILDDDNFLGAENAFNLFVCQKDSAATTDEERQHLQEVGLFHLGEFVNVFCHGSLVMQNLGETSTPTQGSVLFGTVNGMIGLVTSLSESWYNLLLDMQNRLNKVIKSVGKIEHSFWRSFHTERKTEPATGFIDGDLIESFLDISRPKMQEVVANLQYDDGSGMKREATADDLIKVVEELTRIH
Sequence of Helios (IKZF2) (Q9UKS7 whole entry): as the sequence (Q9UKS7 whole entry) above
Sequence of Helios (IKZF2) (Q96SW2 whole entry): as the sequence (Q96SW2 whole entry) above
Sequence of Helios (IKZF2) (Q16531 whole entry partner): as the sequence (Q16531 whole entry partner) above

`Cc1c(C(=O)N2CCC(c3ccc4c(c3)CN(C3CCC(=O)NC3=O)C4=O)CC2)[nH]c2cc(Cl)c(O)cc12` (stereo not drawn) [Compound 101, 3-(5-(1-(6-chloro-5-hydroxy-3-methyl-1H-indole-2-carbonyl)piperidin-4-yl)-1-oxoinsoindolin-2-yl)piperidine-2,6-dione]: in assay [1], the remaining activity at 1 µM is 15.7% and the remaining activity at 10 µM amounted to 20.7%. In addition, in assay [2], the Dmax came out at 100% and the DC50 was in the range of 10 to 100 nM.

Turning to `Cc1c(C(=O)N2CCC(c3ccc4c(c3)CN(C3CCC(=O)NC3=O)C4=O)CC2)[nH]c2cc(Br)ccc12` (stereo not drawn) [Compound 49, 3-(5-(1-(6-bromo-3-methyl-1H-indole-2-carbonyl)piperidin-4-yl)-1-oxoinsoindolin-2-yl)piperidine-2,6-dione], the remaining activity at 10 µM in assay [1] was found to be 8.67%. For the same compound, the DC50 in assay [2] was in the range of 100 to 1000 nM.

Consider `Cc1c(C(=O)N2CCC(c3ccc4c(c3F)CN(C3CCC(=O)NC3=O)C4=O)CC2)[nH]c2cc(Cl)c(F)cc12` (stereo not drawn) [Compound 113, 3-(5-(1-(6-chloro-5-fluoro-3-methyl-1H-indole-2-carbonyl)piperidin-4-yl)-4-fluoro-1-oxoinsoindolin-2-yl)piperidine-2,6-dione], for which, in assay [1], the remaining activity at 1 µM is 14.1%. In assay [2], the Dmax was found to be 96% and the DC50 is less than 10 nM.

With `Cc1c(C(=O)N2CCC(c3cc4c(cc3F)C(=O)N(C3CCC(=O)NC3=O)C4)CC2)[nH]c2cc([N+](=O)[O-])ccc12` (stereo not drawn) [Compound 93, 3-(6-fluoro-5-(1-(3-methyl-6-nitro-1H-indole-2-carbonyl)piperidin-4-yl)-1-oxoinsoindolin-2-yl)piperidine-2,6-dione], the remaining activity at 10 µM in assay [1] is 26.5%. For the same compound, in assay [2], the Dmax turned out to be 100% and the DC50 is less than 10 nM.

As for `Cc1c(C(=O)N2CCC(c3ccc4c(c3F)CN(C3CCC(=O)NC3=O)C4=O)CC2)[nH]c2cc(Cl)c(O)cc12` (stereo not drawn) [Compound 115, 3-(5-(1-(6-chloro-5-hydroxy-3-methyl-1H-indole-2-carbonyl)piperidin-4-yl)-4-fluoro-1-oxoinsoindolin-2-yl)piperidine-2,6-dione], the remaining activity at 1 µM in assay [1] was 34.6%. Moreover, in assay [2], the Dmax amounted to 100% and the DC50 was less than 10 nM.

Consider `Cc1c(C(=O)N2CCC(c3ccc4c(c3F)CN(C3CCC(=O)NC3=O)C4=O)CC2)[nH]c2cc(Cl)ccc12` (stereo not drawn) [Compound 91, 3-(5-(1-(6-chloro-3-methyl-1H-indole-2-carbonyl)piperidin-4-yl)-4-fluoro-1-oxoinsoindolin-2-yl)piperidine-2,6-dione], for which the remaining activity at 10 µM in assay [1] turned out to be 6.4%. Further, in assay [2], the Dmax turned out to be 100% and the DC50 is less than 10 nM.

As for `Cc1c(C(=O)N2CCC(c3ccc4c(c3F)CN(C3CCC(=O)NC3=O)C4=O)CC2)[nH]c2c(F)c(Cl)ccc12` (stereo not drawn) [Compound 117, 3-(5-(1-(6-chloro-7-fluoro-3-methyl-1H-indole-2-carbonyl)piperidin-4-yl)-4-fluoro-1-oxoinsoindolin-2-yl)piperidine-2,6-dione], the DC50 in assay [2] was less than 10 nM.

For `CN(C)Cc1c(C(=O)N2CCC(c3ccc4c(c3)CN(C3CCC(=O)NC3=O)C4=O)CC2)[nH]c2cc(Cl)ccc12` (stereo not drawn) [Compound 87, 3-(5-(1-(6-chloro-3-((dimethylamino)methyl)-1H-indole-2-carbonyl)piperidin-4-yl)-1-oxoinsoindolin-2-yl)piperidine-2,6-dione], in assay [1], the remaining activity at 10 µM came to 8.7%. Further, the DC50 in assay [2] was in the range of 100 to 1000 nM.

`Cc1c(C(=O)N2CCC(c3ccc4c(c3)CN(C3CCC(=O)NC3=O)C4=O)CC2C)[nH]c2cc(Cl)ccc12` (stereo not drawn) [Compound 60, 3-(5-(1-(6-chloro-3-methyl-1H-indole-2-carbonyl)-2-methylpiperidin-4-yl)-1-oxoinsoindolin-2-yl)piperidine-2,6-dione]: in assay [1], the remaining activity at 10 µM was 5.4%. The DC50 in assay [2] is 10 to 100 nM.

On to `Cc1c(C(=O)N2CCC(c3ccc4c(c3)CN(C3CCC(=O)NC3=O)C4=O)CC2)[nH]c2c(F)c(Cl)ccc12` (stereo not drawn) [Compound 99, 3-(5-(1-(6-chloro-7-fluoro-3-methyl-1H-indole-2-carbonyl)piperidin-4-yl)-1-oxoinsoindolin-2-yl)piperidine-2,6-dione], for which, in assay [1], the remaining activity at 1 µM was 10.9% and the remaining activity at 10 µM worked out at 14.6%. In addition, in assay [2], the DC50 lay in the range of 10 to 100 nM.

On to `Cc1c(C(=O)N2CCC(c3ccc4c(c3F)CN(C3CCC(=O)NC3=O)C4=O)CC2)[nH]c2cc(C#N)c(F)cc12` (stereo not drawn) [Compound 120, 2-(4-(2-(2,6-dioxopiperidin-3-yl)-4-fluoro-1-oxoindolin-5-yl)piperidine-1-carbonyl)-5-fluoro-3-methyl-1H-indole-6-carbonitrile], for which the DC50 in assay [2] was in the range of 10 to 100 nM.

With `Cc1c(C(=O)N2CCC(c3ccc4c(c3)CN(C3CCC(=O)NC3=O)C4=O)CC2)[nH]c2cc(Cl)c(F)cc12` (stereo not drawn) [Compound 102, 3-(5-(1-(6-chloro-5-fluoro-3-methyl-1H-indole-2-carbonyl)piperidin-4-yl)-1-oxoinsoindolin-2-yl)piperidine-2,6-dione], in assay [1], the remaining activity at 1 µM worked out at 21.8% and the remaining activity at 10 µM came out at 26.2%. For the same compound, in assay [2], the Dmax was determined as 100% and the DC50 is less than 10 nM.

In the case of `Cc1c(C(=O)N2CCC(c3ccc4c(c3F)CN(C3CCC(=O)NC3=O)C4=O)CC2)[nH]c2cc(C#N)ccc12` (stereo not drawn) [Compound 118, 2-(4-(2-(2,6-dioxopiperidin-3-yl)-4-fluoro-1-oxoindolin-5-yl)piperidine-1-carbonyl)-3-methyl-1H-indole-6-carbonitrile], in assay [2], the Dmax was found to be 100% and the DC50 is less than 10 nM.

As to `Cc1c(C(=O)N2CCC(O)(c3ccc4c(c3)CN(C3CCC(=O)NC3=O)C4=O)CC2)[nH]c2cc(Cl)ccc12` (stereo not drawn) [Compound 64, 3-(5-(1-(6-chloro-3-methyl-1H-indole-2-carbonyl)-4-hydroxypiperidin-4-yl)-1-oxoinsoindolin-2-yl)piperidine-2,6-dione], in assay [1], the remaining activity at 10 µM came to 8.1%. For the same compound, the DC50 in assay [2] was in the range of 10 to 100 nM.

`Cc1c(C(=O)N2CCC(c3ccc4c(c3F)C(=O)N(C3CCC(=O)NC3=O)C4=O)CC2)[nH]c2cc(Cl)ccc12` (stereo not drawn) [Compound 121, 5-(1-(6-chloro-3-methyl-1H-indole-2-carbonyl)piperidin-4-yl)-2-(2,6-dioxopiperidin-3-yl)-4-fluoroisoindoline-1,3-dione]: the DC50 in assay [2] was 100 to 1000 nM.

Regarding `Cc1c(C(=O)N2CCC(c3cc4c(cc3F)C(=O)N(C3CCC(=O)NC3=O)C4)CC2)[nH]c2cc(Cl)c(F)cc12` (stereo not drawn) [Compound 112, 3-(5-(1-(6-chloro-5-fluoro-3-methyl-1H-indole-2-carbonyl)piperidin-4-yl)-6-fluoro-1-oxoinsoindolin-2-yl)piperidine-2,6-dione], in assay [1], the remaining activity at 1 µM was 23%. Besides, in assay [2], the Dmax worked out at 98% and the DC50 fell in the range of 10 to 100 nM.

With `Cc1cc2c(C)c(C(=O)N3CCC(c4ccc5c(c4)CN(C4CCC(=O)NC4=O)C5=O)CC3)[nH]c2cc1[N+](=O)[O-]` (stereo not drawn) [Compound 85, 3-(5-(1-(3,5-dimethyl-6-nitro-1H-indole-2-carbonyl)piperidin-4-yl)-1-oxoinsoindolin-2-yl)piperidine-2,6-dione], in assay [1], the remaining activity at 10 µM stood at 11%. Further, the DC50 in assay [2] lay in the range of 100 to 1000 nM.

In the case of `Cc1c(C(=O)N2CCC(c3ccc4c(c3F)CN(C3CCC(=O)NC3=O)C4=O)CC2)[nH]c2cc(Cl)c(C#N)cc12` (stereo not drawn) [Compound 119, 6-chloro-2-(4-(2-(2,6-dioxopiperidin-3-yl)-4-fluoro-1-oxoindolin-5-yl)piperidine-1-carbonyl)-3-methyl-1H-indole-5-carbonitrile], in assay [2], the Dmax was found to be 92% and the DC50 fell in the range of 10 to 100 nM.

Regarding `COc1cc2c(C)c(C(=O)N3CCC(c4ccc5c(c4)CN(C4CCC(=O)NC4=O)C5=O)CC3)[nH]c2cc1[N+](=O)[O-]` (stereo not drawn) [Compound 97, 3-(5-(1-(5-methoxy-3-methyl-6-nitro-1H-indole-2-carbonyl)piperidin-4-yl)-1-oxoinsoindolin-2-yl)piperidine-2,6-dione], in assay [1], the remaining activity at 1 µM amounted to 14.6% and the remaining activity at 10 µM came to 21.4%. In addition, the DC50 in assay [2] was in the range of 10 to 100 nM.

In the case of `Cc1c(C(=O)N2CCC(c3ccc4c(c3F)CN(C3CCC(=O)NC3=O)C4=O)CC2)[nH]c2cc(N3CCOCC3)ccc12` (stereo not drawn) [Compound 116, 3-(4-fluoro-5-(1-(3-methyl-6-morpholino-1H-indole-2-carbonyl)piperidin-4-yl)-1-oxoinsoindolin-2-yl)piperidine-2,6-dione], in assay [2], the Dmax stood at 96% and the DC50 lay in the range of 10 to 100 nM.
